As usually defined, the pIC50 is the IC50 on a negative log10 scale, so that one unit is a factor of ten. A higher pIC50 goes with a low IC50.

pIC50: −log10 of the molar value.

IC50 data for eleven molecules are collected here from US4699905A, “Perhydrothiazepine derivatives, their preparation and their therapeutic use” (Sankyo Company, Limited, priority 1984, dated 1987).

This assay addresses T1, ACE extracted from rabbit lungs (Oryctolagus cuniculus, UniProt P12822).
T1 construct: solutions of ACE extracted from rabbit lungs; from tissue; host or cells: rabbit lung
T1 sequence (P12822 34-1310): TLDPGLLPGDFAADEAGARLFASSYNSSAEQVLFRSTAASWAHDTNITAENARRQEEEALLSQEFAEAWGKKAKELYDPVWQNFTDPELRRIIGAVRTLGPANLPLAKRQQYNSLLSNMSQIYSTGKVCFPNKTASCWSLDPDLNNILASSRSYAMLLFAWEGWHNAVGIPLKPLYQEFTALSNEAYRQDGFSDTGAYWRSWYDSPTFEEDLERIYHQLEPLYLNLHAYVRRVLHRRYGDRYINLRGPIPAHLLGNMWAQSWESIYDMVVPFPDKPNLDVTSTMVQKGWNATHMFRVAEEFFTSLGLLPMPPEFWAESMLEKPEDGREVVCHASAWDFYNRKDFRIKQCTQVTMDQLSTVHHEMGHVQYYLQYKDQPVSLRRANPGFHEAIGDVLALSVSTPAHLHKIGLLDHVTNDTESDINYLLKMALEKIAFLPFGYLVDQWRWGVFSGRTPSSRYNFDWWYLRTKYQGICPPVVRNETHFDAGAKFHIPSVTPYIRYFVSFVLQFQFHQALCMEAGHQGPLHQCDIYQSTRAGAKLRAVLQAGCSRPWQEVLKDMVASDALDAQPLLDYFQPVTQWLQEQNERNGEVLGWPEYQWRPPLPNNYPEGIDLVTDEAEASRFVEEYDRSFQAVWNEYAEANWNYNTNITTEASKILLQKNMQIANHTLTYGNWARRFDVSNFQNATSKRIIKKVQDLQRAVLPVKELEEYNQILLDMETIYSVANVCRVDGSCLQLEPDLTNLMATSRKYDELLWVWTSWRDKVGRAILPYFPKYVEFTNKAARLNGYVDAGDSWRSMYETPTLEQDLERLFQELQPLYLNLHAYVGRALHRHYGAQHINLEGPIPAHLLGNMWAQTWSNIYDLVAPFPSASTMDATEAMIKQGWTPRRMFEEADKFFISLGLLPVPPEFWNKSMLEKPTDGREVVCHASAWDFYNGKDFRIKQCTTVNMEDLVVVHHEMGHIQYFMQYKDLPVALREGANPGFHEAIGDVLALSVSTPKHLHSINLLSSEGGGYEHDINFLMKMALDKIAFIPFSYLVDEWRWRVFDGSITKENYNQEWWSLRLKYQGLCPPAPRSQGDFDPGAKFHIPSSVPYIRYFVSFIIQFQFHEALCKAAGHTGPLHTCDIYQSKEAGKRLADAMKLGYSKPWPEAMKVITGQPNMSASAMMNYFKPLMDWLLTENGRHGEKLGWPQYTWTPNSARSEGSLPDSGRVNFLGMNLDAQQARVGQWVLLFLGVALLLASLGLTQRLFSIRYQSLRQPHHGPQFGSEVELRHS
The assay is described as follows: inhibition of ACE activity in vitro (hippurylhistidylleucine substrate; procedure of Cushman et al.). To be noted: borate buffer with sodium chloride, pH 8.3, 37° C., 30 minutes, hippuric acid by UV 228 nm. It is filed as biochemical. The procedure:
As noted above, the compounds of the present invention have the ability to inhibit the activity of ACE, the enzyme which converts angiotensin I to angiotensin II and also inactivates bradykinin. […] W. Cushman et al. [Biochemical Pharmachology, 20, 1637 (1971)]. […] The enzymatic reaction was allowed to proceed at 37° C. for 30 minutes, after which time the reaction was terminated by adding 1N aqueous hydrochloric acid. […] The residual hippuric acid was dissolved in water. The amount of hippuric acid in the resulting aqueous solution was determined by the absorbency to ultraviolet radiation at 228 nm. These values were then plotted to form a curve indicating the relationship between the amount of hippuric acid formed and the concentration of the test compound. The IC50 value can be obtained by reading on this curve the concentration of the test compound which reduces the amount of hippuric acid formed to one half of that formed when no test compound is present.
For the molecule `O=C(O)CN1CC(c2cccs2)SCC(NC(CCc2ccccc2)C(=O)O)C1=O` (single isomer, unassigned) [E], the negative logarithm of the IC50 (pIC50) was 8.62.
`O=C(O)CN1CC(c2ccsc2)SCC(NC(CCc2ccccc2)C(=O)O)C1=O` (single isomer, unassigned) [D] gave a pIC50 of 8.60.
The molecule `CC(C)[C@@H]1CSC[C@H](N[C@@H](CCc2ccccc2)C(=O)O)C(=O)N1CC(=O)O` [B] had a pIC50 of 8.80.
As to `C[C@@H]1CSC[C@H](N[C@@H](CCc2ccccc2)C(=O)O)C(=O)N1CC(=O)O` [J], the pIC50 is 8.52.
Turning to `O=C(O)CN1C(=O)[C@@H](N[C@@H](CCc2ccccc2)C(=O)O)CSC[C@H]1c1ccccc1` [A], the pIC50 is 8.96.
As for `O=C(O)CN1C(=O)[C@@H](N[C@@H](CCc2ccccc2)C(=O)O)CSC[C@H]1c1cccs1` [G], the figure is 8.85; as for `O=C(O)CN1CC(c2ccco2)SCC(NC(CCc2ccccc2)C(=O)O)C1=O` (single isomer, unassigned) [F], 8.52.
As for `O=C(O)CN1CC(c2cccc3ccccc23)SCC(NC(CCc2ccccc2)C(=O)O)C1=O` (single isomer, unassigned) [H], the figure is 8.80.
`O=C(O)CN1C(=O)[C@@H](N[C@@H](CCc2ccccc2)C(=O)O)CSC[C@@H]1Cc1ccccc1` [K]: the pIC50 was 8.89.
The result for `O=C(O)CN1CC(c2ccc3ccccc3c2)SCC(NC(CCc2ccccc2)C(=O)O)C1=O` (single isomer, unassigned) [I] reads 8.70; that for `O=C(O)CN1CC(c2ccccc2)SCC(NC(CCc2ccccc2)C(=O)O)C1=O` (single isomer, unassigned) [C], 8.62.
